Test system: hESC-derived PAX2-nGFP+ otic progenitors
Assay: ventral/dorsal otic marker expression in otic progenitors (D20 scRNA-seq, D25 immunofluorescence)
Assay type: cell-based, human
Procedure: PAX2-2A-nGFP/POU4F3-2A-ntdTomat hESCs (passages 22-50) were maintained and passaged in Essential 8 Flex Medium (Thermo Fisher, A2858501) supplemented with 100 μg/ml Normocin (E8fn) on recombinant human Vitronectin-N(Thermo Fisher, A14700)-coated 6-well plates. Human inner ear organoids were derived from hESCs based on the inventors' previous protocol 8.10 with major modifications. Briefly, hESCs were dissociated with StemPro Accutase (Thermo Fisher, A1110501) and distributed at 3500 cells per well onto low-adhesion 96-well U-bottom plates in 100 μL E8fn containing 20 μM Y-27632 (Stemgent, 04-0012-02) and forcibly aggregated at 120 g for 5 minutes. 100 μL of E8fn was added to each well after >4 h of incubation. Induction of non-neural epithelium occurred following 48 h of aggregation, marking differentiation day 0, as follows: aggregates were washed extensively in DMEM:F12 with HEPES buffer (DFH) (Thermo Fisher, 11320033) and transferred to new 96-well U-bottom plates in 100 μL of E6 medium (Thermo Fisher, A1516401) with Normocin (E6n) containing 4 ng mL^−1 FGF-2 (StemCell Technologies, 780003), 10 μM SB-431542 (Stemgent, 04-0010-05), and 2% growth factor reduced (GFR) Matrigel (Corning, 354230). On day 3 of differentiation, 25 μL of E6n containing 50 ng/ml FGF-2 and 200 nM LDN-193189 (Stemgent, 04-0074-02) was added to each well. […]

c1ccc2c(Oc3nc(Nc4ccc(N5CCOCC5)cc4)c4ncn(C5CCCCC5)c4n3)cccc2c1 [PUR, 9H-Purin-6-amine, 9-cyclohexyl-N-[4-(4-morpholinyl)phenyl]-2-(1-naphthalenyloxy)-]
ventral otic marker expression (D20-D25 organoids): not sufficient | expression of SHH pathway genes SULF1, LRP2, GAS1, PTCH1 (D20 otic progenitors): attenuated
